The text below walks through data of patent US8846903B2, “Acyl-urea derivatives and uses thereof” (Yissum Research Development Company of the Hebrew …, priority 2007, dated 2014).

Broadly, the melting point is the temperature of the solid-liquid transition. In general, ED50 refers to the dose at which the effect has come halfway, by size or by number of responders.

Molecules are shown by their SMILES. Several values for one entry are separate records, joined by “and”; a condition that tells them apart may be missing. Identical values can stand only once.

In data set [1] the test system is mice. The note with it: tested by Spielman and co-workers; cited from earlier work.
For data set [2], the system named is mice. Kind of data set: Psychomotor seizure (6 Hz, 32 mA) assay in mice. It is filed as in vivo. The note with it: Mus musculus, ip, intraperitoneal. On the procedure:
In a third model, the compounds were tested for their ability to block 6 Hz (32 mA) seizures following intraperitoneal administration thereof to male mice. This test is aimed at identifying new drug candidates for the treatment of therapy-resistant partial seizures.
(§1) Briefly, psychomotor seizure (6-Hz) assay measures the resistance of a subject to induced psychomotor seizures. The assay was conducted in mice which were pretreated with the test compound. At varying times after treatment, individual subjects were challenged with sufficient current of 32 mA at 6 Hz for 3 seconds, or 44 mA at 6 Hz for 3 seconds, delivered through corneal electrodes to elicit a psychomotor seizure. Animals which were not affected by the current were considered affected positively by the tested compound, thus compounds which were found active in this test are considered promising novel drug candidates for the treatment of therapy-resistant seizures.

The subject of data set [3] is mice. In words: Psychomotor seizure (6 Hz, 44 mA) assay in mice. It is filed as in vivo. The note with it: Mus musculus. On the procedure:
as §1

The test system of data set [4] is rats. In words: Maximal electroshock seizure test (MES) in rats. To be noted: for ED50: Rattus norvegicus; for Fraction of rats which responded to the treatment: MES. It is filed as in vivo. An excerpt:
Briefly, Maximal Electroshock Seizure (MES) assay measures drug capacity to prevent seizure spread and is thus considered to model generalized tonic-clonic seizures. […] The current was delivered to the subjects by means of corneal electrodes to produce tonic hind limb extension. Animals not displaying tonic hind limb extension were considered affected positively by the tested compound.
On the technique in general: Protection in the maximal electroshock model is a classic sign of anticonvulsant action.

For data set [5], the system named is rats. In words: Subcutaneous metrazol seizure threshold test (scMet) in rats. It is filed as in vivo. To be noted: for ED50: Rattus norvegicus, po; for ED50 / ED50 scMet in Rats: rats, scMet model, oral administration (stated for Compound 1); for Fraction of rats which responded to the treatment: scMet. On the procedure: Subcutaneous Metrazole Seizure Threshold Test (scMet) assay measures the ability of an agent to elevate seizure threshold and is considered to model generalized absence seizures. The assay was performed by subcutaneous injection of 85 mg/kg of the convulsant agent metrazole that induces clonic seizures in at least 97% of all animal models (rats and mice).

In data set [6] the test system is rats. In words: Hippocampal kindling screen in rats. To be noted: for ED50: Rattus norvegicus, ip. It is filed as in vivo. The protocol:
In a fifth model, the hippocampal kindling assay was used to identify new drug candidates effective for the treatment of difficult-to-control seizure types and complex partial seizures, as well as compounds that may be effective as mood stabilizer for treating bipolar disorder, and was conducted according to the protocol described therein.
Briefly, this test was conducted by using a bipolar stimulating electrode which was implanted in the hippocampus of rats, and the rats were kindled according to a described method. One week after implantation of the electrodes, the rats were stimulated with supra-threshold trains of 200 μA and 50 Hz for 10 seconds every 30 minutes for 6 hours on alternate days until the animals were fully kindled. […] The behavioral seizures were scored according to the following criteria (“seizure score”): stage 1—mouth and facial clonus; stage 2—stage 1 plus head nodding; stage 3—stage 2 plus forelimb clonus; stage 4—stage 3 plus rearing; and stage 5—stage 4 plus repeated rearing and falling.
For these studies, each of the compounds was evaluated for its ability to block the kindled motor seizure (seizure scores 4 and 5) and limbic behavioral seizures (seizure score between 1 and 3). Additionally the new drug candidate was evaluated for their ability to reduce after discharge duration. The term “after-discharge-duration” is the duration (measured in seconds) of the stages defined above, which are elicited by the electrical currents delivered to the rats.
At least one week after the fully kindled state was reached, a dose of the test compound was administered intraperitoneally and its effect on behavioral seizure score and after-discharge-duration following 200 μA stimulation was assessed at various time intervals before drug administration and after drug administration. Animals not displaying stage 4 or 5 were considered affected positively from seizure generalization.

The nature of a further data set: in vivo. The note with it: rat, po.
Data set [7] has as its system rats. Kind of data set: Neurotoxicity, gait and stance test in rats (TD50). The note with it: oral administration, median neurological toxic dose.
Procedure: (§2) The neurotoxicity of the compounds of the present embodiments was tested using rats which were treated by oral administration, and evaluated according to the “gait and stance” test, which assesses minimal neurotoxicity. […] The median neurological toxic dose (TD50) was used for quantization of neurotoxicity.
Data set [8] relates to rats. To be noted: results disclosed in the art; cited from earlier work.
Data set [9] deals with rats. To be noted: results disclosed in the art; cited from earlier work. This is another data set of the same source.
Data set [10] deals with rats. To be noted: oral administration, literature values; cited from earlier work.
For data set [11], the system named is mice. Kind of data set: Bicuculline (BIC) clonic seizure assay in mice. It is filed as in vivo. The note with it: Mus musculus, sc, BIC 2.7 mg/kg s.c., read-out: Bicucullin ED50.
Data set [12] deals with mice. In words: animal or person. It is filed as in vivo. The note with it: Mus musculus, sc, read-out: Picrotoxin ED50.
The test system of a further data set is Sprague Dawley rats. In words: Acute toxicity (acute motor impairment) after i.p. administration to rats. It is filed as in vivo. On the procedure: Acute toxicity was determined by recording acute motor impairment after three doses of 30, 100 and 300 mg/kg of the tested compounds. The compounds were administered by the intraperitoneal (i.p.) route to three groups of 4 Sprague Dawley rats. […]

Data set [13] concerns mice. The note with it: reported by Spielman et al. [19]; cited from earlier work.
The subject of data set [14] is mice. To be noted: reported by Spielman et al. [19]; cited from earlier work. This is another data set of the same source.
The subject of data set [15] is mice. To be noted: from [31]; cited from earlier work.
The subject of data set [16] is mice. To be noted: from [31]; cited from earlier work. The source holds these as a separate data set.

Procedure for in vivo: as §2

In the case of `CCC(C)C(=O)NC(N)=O` (centres unmarked) [Compound 8, 2-methylbutanoylurea], the melting point fell in the range of 178 to 180 °C. Further, in the data set with mice [1], the anti-convulsant activity result is “lack beneficial activity”.

For `CCC[C@H](C(=O)NC(N)=O)C(C)C` (stereo in doubt) [Compound 1R, R-1-(2-isopropylpentanoyl)urea], the ED50 in the data set on mice [2] came to 43 mg/kg; in the data set with mice [3], 56 mg/kg.

As to `CCCCC(CC)C(=O)NC(N)=O` (centres unmarked) [Compound 5, 1-(2-ethyl-hexanoyl)-urea], the melting point was in the range of 158 to 159 °C. In addition, the anti-convulsant activity result with mice [1] is “lack beneficial activity”.

For `CCCC(C(=O)NC(N)=O)C(C)C` (racemic) [Compound 1, 1-(2-isopropylpentanoyl)urea], the ED50 was 16 mg/kg in the data set on rats [4] (rats, MES model); 45 mg/kg in the data set on rats [5]; 42.2 mg/kg in the data set with mice [2]; 71 mg/kg with mice [3]; more than 94 mg/kg with rats [6] (rats, intraperitoneal). The “ED50 scMet in Rats” value in the data set on rats [5] was 45.4 mg/kg. Moreover, the TD50 in “in vivo” was 95 mg/kg. Moreover, the “TD50 in Rats” value in the data set on rats [7] is on record as 94.5 mg/kg.

For the molecule `CC1(C)C(C(=O)NCC(N)=O)C1(C)C` [Reference Compound 2, N-(2,2,3,3-tetramethylcyclopropylcarbonyl)glycinamide], in the data set with rats [8], the “ED50 rat-MES model” value is 73 mg/kg. Also, the “ED50 rat-scMet model” value in the data set with rats [9] is recorded as “higher than 250 mg/kg”. For the same molecule, the TD50 entry with rats [10] is reported as “above 500 mg/kg”.

For `CC(C)CC(=O)NC(N)=O` [Compound 7, 3-methylbutanoylurea], the median effective dose (ED50) with rats [4] (rats, MES model) was more than 250 mg/kg; with rats [5], 83 mg/kg. The anti-convulsant activity result with mice [1] is “lack beneficial activity”. In addition, in “in vivo”, the TD50 is less than 500 mg/kg.

As for `CCC[C@@H](C(=O)NC(N)=O)C(C)C` [Compound 1S, S-1-(2-isopropylpentanoyl)urea], the ED50 in the data set on mice [2] stood at 46 mg/kg; in the data set with mice [3] it was 75 mg/kg.

With `CC(C)C(C(=O)NC(N)=O)C(C)C` [Compound 2, 1-(2-isopropyl-3-methylbutanoyl)urea], the melting point is 199 to 200 °C. In addition, in the data set on rats [4] (dose 15 mg/kg), the “Fraction of rats which responded to the treatment” value (“Fraction of rats which responded” for short) is on record as 1/8. Also, the “Fraction of rats which responded” value in the data set on rats [4] (dose 30 mg/kg) is reported as 5/8. In addition, in the data set with rats [4] (dose 60 mg/kg), the “Fraction of rats which responded” value was 5/8. Besides, the “Fraction of rats which responded” value in the data set with rats [4] (dose 120 mg/kg) was 8/8. Moreover, in the data set with rats [4] (rats, MES model), it took a dose of 33 mg/kg to reach the 50% effect level (ED50) and the “ED50 MES in Rats” value is on record as 32.7 mg/kg. In addition, in the data set with rats [5], the 50% effect level (ED50) was put at a dose of 16 mg/kg and the “ED50 scMet in Rats” value is recorded as 15.7 mg/kg. Moreover, the “Fraction of rats which responded” value in the data set on rats [5] (dose 6 mg/kg) is 1/8. Also, the “Fraction of rats which responded” value in the data set with rats [5] (dose 12 mg/kg) is 2/8. In the data set with rats [5] (dose 25 mg/kg), the “Fraction of rats which responded” value was 6/8. The “Fraction of rats which responded” value with rats [5] (dose 50 mg/kg) is reported as 8/8. In the data set with mice [2], this molecule registered an ED50 of 43.3 mg/kg. Also, the 50% effect level in the data set with mice [3] (ED50) was put at a dose of 48.6 mg/kg. The same molecule registered an ED50 with rats [6] (rats, intraperitoneal) of more than 200 mg/kg.

With `CC1(C)C(C(=O)NC(N)=O)C1(C)C` [Reference Compound 1, N-(2,2,3,3-tetramethylcyclopropanecarbonyl)urea], in the data set with rats [8], the “ED50 rat-MES model” value is 29 mg/kg. Moreover, the “ED50 rat-scMet model” value in the data set on rats [9] is 92 mg/kg.

With `CC(C)(C)CC(=O)NC(N)=O` [Compound 3, 1-(3,3-dimethyl-butyryl)urea], the melting point fell in the range of 174 to 175 °C. This molecule had an ED50 in the data set on rats [4] (rats, MES model) of 63.9 mg/kg. In addition, the 50% effect level in the data set on rats [5] (ED50) was put at a dose of 26 mg/kg. For the same molecule, in the data set with mice [2], the ED50 stood at 80 mg/kg. In the data set on rats [6] (rats, intraperitoneal), it took a dose of 35 mg/kg to reach the 50% effect level (ED50) and the “ED50 Hippocampal kindling in Rats” value is on record as 35.1 mg/kg. Further, the “After Discharge Duration After administration” value in the data set with rats [6] (individual kindled rats, 15 minutes after intraperitoneal administration, before: 93-103 (rat 1), 28-75 (rat 2)) is “significantly decreased and 4 sec and 14 sec”. Moreover, in the data set on rats [6] (individual kindled rats, 15 minutes after intraperitoneal administration, score before administration 5), the “Seizure Score After administration” value stood at 0. For the same molecule, in the data set on mice [11], the ED50 worked out at 205 mg/kg. For the same molecule, the ED50 in the data set with mice [12] was 167 mg/kg. In “in vivo”, this molecule showed a TD50 of 143 mg/kg.

As for `CC[C@@H](C)[C@@H](CC)C(=O)NC(N)=O` (racemic) [Compound 4, 1-(2-ethyl-3-methyl-pentanoyl)-urea], the ED50 in the data set on rats [4] (rats, MES model) was 24 mg/kg; in the data set with rats [5], 14 mg/kg; with mice [2] it was 21 mg/kg; with mice [3], 48 mg/kg. Also, the “toxicity profile (animals toxic/tested)” value with Sprague Dawley rats (100 mg/kg i.p., 0.25 hours) was 0/2; with Sprague Dawley rats (100 mg/kg i.p., 0.5 hours), 1/2; in the data set with Sprague Dawley rats (100 mg/kg i.p., 1 hour) it was 1/2; in the data set with Sprague Dawley rats (100 mg/kg i.p., 2 hours), 0/2; with Sprague Dawley rats (100 mg/kg i.p., 4 hours), 0/2; in the data set with Sprague Dawley rats (300 mg/kg i.p., 0.25 hours), 2/2. The “toxicity profile (animals toxic/tested)” value with Sprague Dawley rats (300 mg/kg i.p., 0.5 hours) is 2/2; in the data set with Sprague Dawley rats (300 mg/kg i.p., 1 hour), 2/2; in the data set with Sprague Dawley rats (300 mg/kg i.p., 2 hours), 2/2; in the data set with Sprague Dawley rats (300 mg/kg i.p., 4 hours), 2/2. Besides, in the data set with mice [13], the “activity in the MES assay” value was “inactive”. Besides, the “activity in the scMet assay” value in the data set with mice [14] is listed as “only active at toxic doses”. In the data set on mice [1], the anti-convulsant activity entry was “lack beneficial activity”. In addition, in the data set “in vivo”, the TD50 came to 97 mg/kg.

For `CCCC(CCC)C(=O)NC(N)=O` [Compound 6, 1-(2-propyl-pentanoyl)-urea], the median effective dose (ED50) is 53.8 mg/kg in the data set on rats [4] (rats, MES model); 76.8 mg/kg in the data set on rats [5]; 57.8 mg/kg with mice [2]; 105 mg/kg in the data set with mice [3]; more than 180 mg/kg in the data set on rats [6] (rats, intraperitoneal). Further, the anti-convulsant activity entry with mice [1] is listed as “lack beneficial activity”.

For the molecule `CCCC(CCC)C(=O)O` [Valproic acid, valproic acid], the “ED50 rat-scMet model” value with rats [9] is given as 646 mg/kg. Besides, the “Bicucullin ED50” value in the data set on mice [15] was 589 mg/kg. Further, the “Picrotoxin ED50” value in the data set on mice [16] is recorded as 270 mg/kg.

The molecule `CC(C)(C)C(=O)NC(N)=O` [Compound 9, 2,2-dimethylpropanoylurea] showed a melting point of 148 to 149 °C. The molecule also gave an ED50 with rats [4] (rats, MES model) of 69.4 mg/kg. Moreover, the 50% effect level in the data set on rats [5] (ED50) was put at a dose of 29.8 mg/kg. The same molecule showed a TD50 in “in vivo” of 228 mg/kg.
